Reference: patent US12161643B2, “Stable formulations of SHR0302” (ARCUTIS BIOTHERAPEUTICS, INC., priority 2021, dated 2024)

Tests used:
[1] = Solubility of SHR0302 in water at varying pH values in phosphate and citrate buffer systems; type: physicochemical; conditions: FIG. 2
Description: The solubility of SHR0302 was determined in water at varying pH values in various buffer systems. FIG. 2 illustrates a plot of SHR0302 concentration in μg/mL in water as a function of pH in two phosphate buffer systems and a citrate buffer system.

[2] = Solubility of SHR0302 in water at varying pH values in a phosphate buffer; type: physicochemical; conditions: phosphate buffer system; FIG. 1
Description: The solubility of SHR0302 was determined in water at varying pH values in a phosphate buffer. FIG. 1 illustrates a plot of SHR0302 (also known as ARQ-250) concentration in μg/mL in water as a function of pH in a phosphate buffer system.

JAK1 = JAK1 (Homo sapiens, UniProt P23458); conditions: cited from earlier work
Sequence of JAK1 (P23458 whole entry): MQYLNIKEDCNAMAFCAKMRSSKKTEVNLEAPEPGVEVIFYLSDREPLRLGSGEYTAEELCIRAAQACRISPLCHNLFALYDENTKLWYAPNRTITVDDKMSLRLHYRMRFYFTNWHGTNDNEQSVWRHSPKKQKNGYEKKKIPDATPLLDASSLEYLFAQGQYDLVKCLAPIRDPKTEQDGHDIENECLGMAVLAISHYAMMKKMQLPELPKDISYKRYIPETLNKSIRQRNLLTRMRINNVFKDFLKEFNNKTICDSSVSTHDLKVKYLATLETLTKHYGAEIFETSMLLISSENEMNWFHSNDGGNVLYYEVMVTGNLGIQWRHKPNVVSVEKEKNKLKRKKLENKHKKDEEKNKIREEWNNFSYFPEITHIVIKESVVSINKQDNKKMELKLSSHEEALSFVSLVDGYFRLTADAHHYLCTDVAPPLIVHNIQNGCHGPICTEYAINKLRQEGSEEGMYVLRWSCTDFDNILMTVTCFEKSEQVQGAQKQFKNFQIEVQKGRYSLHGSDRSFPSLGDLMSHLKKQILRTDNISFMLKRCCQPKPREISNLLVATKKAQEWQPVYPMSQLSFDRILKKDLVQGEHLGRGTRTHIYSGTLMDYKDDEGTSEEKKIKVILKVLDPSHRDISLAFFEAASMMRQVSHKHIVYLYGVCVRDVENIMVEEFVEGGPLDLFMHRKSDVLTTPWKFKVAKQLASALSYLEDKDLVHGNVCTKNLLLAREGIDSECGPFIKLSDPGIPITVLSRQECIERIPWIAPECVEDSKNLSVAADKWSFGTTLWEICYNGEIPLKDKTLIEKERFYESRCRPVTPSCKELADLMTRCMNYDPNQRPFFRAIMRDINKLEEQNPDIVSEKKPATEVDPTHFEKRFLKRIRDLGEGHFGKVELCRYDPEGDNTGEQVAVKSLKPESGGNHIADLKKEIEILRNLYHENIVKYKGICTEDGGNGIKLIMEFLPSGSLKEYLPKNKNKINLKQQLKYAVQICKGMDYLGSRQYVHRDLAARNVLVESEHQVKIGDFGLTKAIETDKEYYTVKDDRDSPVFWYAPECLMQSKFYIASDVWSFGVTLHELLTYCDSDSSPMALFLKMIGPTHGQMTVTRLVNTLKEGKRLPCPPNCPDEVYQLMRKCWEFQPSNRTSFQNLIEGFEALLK

In the case of `COc1nsc(NC(=O)N2C[C@H]3C[C@H](N(C)c4ncnc5[nH]ccc45)C[C@H]3C2)n1` [SHR0302, (3aR,5S,6aS)—N-(3-methoxyl-1,2,4-thiadiazol-5-yl)-5-(methyl(7H-pyrrolo[2,3-d]pyrimidin-4-yl)amino)hexahydrocyclopenta[c]pyrrole-2(1H)-carboxamide], the “solubility in water as a function of pH” value [1] is listed as “decreases as pH levels increase”, the “solubility in water as a function of pH” value [2] is listed as “decreases as pH levels increase” and the “selectivity for JAK1 over JAK2” value (JAK1; JAK1 over JAK2) is listed as “high selectively for JAK1 over JAK2”. For the same molecule, the “inhibition of JAK1” value (JAK1) was “potent”.
